The values below come from patent publication US20240360157A1, “TYK2 INHIBITORS” (BIOGEN MA INC., priority 2021, published 2024).

For orientation: IC50 means the concentration needed to halve the response being measured.

What all share (assay type): biochemical
Experiment [1] deals with human TYK2 catalytic kinase (JH1) domain (Homo sapiens (Human), UniProt P29597). As to the kind of experiment: ADP-Glo Kinase Assay, recombinant TYK2 catalytic kinase (JH1) domain. Conditions: recombinant JH1 domain 2 nM, 10 μM ATP, JAK3-974 peptide, mean, read-out: TYK2 biochem IC50 (nM) Mean. A digest of the protocol:
(§1)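 Compounds were titrated in 11 points of 3-fold dilution starting at 10 μM or 1 μM. Enzyme (JAK1 4 nM, JAK2 0.2 nM, JAK3 0.3 nM, TYK2 2 nM) and 50 μM peptide reacted for 100 minutes, followed by ADP-to-luminescence detection; IC50 by 4-parameter fit.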

The target of experiment [2] is human JAK1 catalytic kinase (JH1) domain (Homo sapiens (Human), UniProt P23458). As to the kind of experiment: ADP-Glo Kinase Assay, recombinant JAK1 catalytic kinase (JH1) domain. The following applies: recombinant JH1 domain 4 nM, 35 μM ATP, JAK3-342 peptide, mean, read-out: JAK1 biochem IC50 (nM) Mean. An outline of the steps: as §1
(In ADP-Glo the light output rises with the ADP produced.)

Experiment [3] has as its target human JAK3 catalytic kinase (JH1) domain (Homo sapiens (Human), UniProt P52333). As to the kind of experiment: ADP-Glo Kinase Assay, recombinant JAK3 catalytic kinase (JH1) domain. The following applies: recombinant JH1 domain 0.3 nM, 4 μM ATP, JAK3-974 peptide, mean, read-out: JAK3 biochem IC50 (nM) Mean. A digest of the protocol:
as §1

In experiment [4] the target is human JAK2 catalytic kinase (JH1) domain (Homo sapiens (Human), UniProt O60674). As to the kind of experiment: ADP-Glo Kinase Assay, recombinant JAK2 catalytic kinase (JH1) domain. Conditions: recombinant JH1 domain 0.2 nM, 15 μM ATP, JAK3-974 peptide, mean, read-out: JAK2 biochem IC50 (nM) Mean. A digest of the protocol:
as §1

Molecules are shown by their SMILES.

Sequence of human JAK1 catalytic kinase (JH1) domain (P23458 875-1153): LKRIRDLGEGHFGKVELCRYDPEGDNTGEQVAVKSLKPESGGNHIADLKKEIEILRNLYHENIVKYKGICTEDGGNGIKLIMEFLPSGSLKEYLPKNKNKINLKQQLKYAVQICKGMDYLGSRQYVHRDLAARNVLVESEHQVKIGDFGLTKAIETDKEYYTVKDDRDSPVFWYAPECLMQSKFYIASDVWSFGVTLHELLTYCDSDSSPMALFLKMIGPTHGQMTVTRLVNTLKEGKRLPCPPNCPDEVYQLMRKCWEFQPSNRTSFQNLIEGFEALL
Sequence of human TYK2 catalytic kinase (JH1) domain (P29597 897-1176): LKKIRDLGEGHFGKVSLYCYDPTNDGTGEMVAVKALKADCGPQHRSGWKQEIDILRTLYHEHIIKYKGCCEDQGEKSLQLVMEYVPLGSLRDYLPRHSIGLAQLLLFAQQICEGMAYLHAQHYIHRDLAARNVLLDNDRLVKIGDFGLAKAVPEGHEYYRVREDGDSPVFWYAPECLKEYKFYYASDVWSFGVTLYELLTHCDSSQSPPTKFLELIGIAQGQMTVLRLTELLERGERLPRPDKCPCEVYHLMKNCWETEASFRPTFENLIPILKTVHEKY
Sequence of human JAK3 catalytic kinase (JH1) domain (P52333 822-1111): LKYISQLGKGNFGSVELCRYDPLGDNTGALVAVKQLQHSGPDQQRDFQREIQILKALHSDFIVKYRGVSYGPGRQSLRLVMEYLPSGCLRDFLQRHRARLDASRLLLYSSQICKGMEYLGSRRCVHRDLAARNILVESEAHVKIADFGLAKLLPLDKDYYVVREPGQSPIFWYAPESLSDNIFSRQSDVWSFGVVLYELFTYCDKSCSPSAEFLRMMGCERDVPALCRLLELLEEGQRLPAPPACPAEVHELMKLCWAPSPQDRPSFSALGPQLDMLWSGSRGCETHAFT
Sequence of human JAK2 catalytic kinase (JH1) domain (O60674 849-1124): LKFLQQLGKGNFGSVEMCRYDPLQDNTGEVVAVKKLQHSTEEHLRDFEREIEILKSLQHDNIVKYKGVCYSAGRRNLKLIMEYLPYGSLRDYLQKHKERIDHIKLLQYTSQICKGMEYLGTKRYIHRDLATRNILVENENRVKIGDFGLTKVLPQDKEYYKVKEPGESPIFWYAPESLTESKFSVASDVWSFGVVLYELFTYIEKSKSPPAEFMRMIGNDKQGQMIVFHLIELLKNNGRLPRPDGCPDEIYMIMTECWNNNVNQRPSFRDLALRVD

Take `Cn1ncc(-c2cc3c(N4CC5CCC(C4)N5C(=O)[C@@H]4C[C@H]4F)ccnn3c2)c1F` [Example 121, (3-(6-(5-fluoro-1-methyl-1H-pyrazol-4-yl)pyrrolo[1,2-b]pyridazin-4-yl)-3,8-diazabicyclo[3.2.1]octan-8-yl)((1S,2R)-2-fluorocyclopropyl)methanone]: the IC50 in experiment [1] came out at 4.7 nM; in experiment [2], 117 nM; in experiment [3] it was 606 nM; in experiment [4] it was 113 nM.
The like results for `COc1ccc(-c2cc3c(N4CC5CCC(C4)N5C(=O)[C@@H]4C[C@H]4F)ccnn3c2)nn1` [Example 122, ((1S,2R)-2-fluorocyclopropyl)(3-(6-(6-methoxypyridazin-3-yl)pyrrolo[1,2-b]pyridazin-4-yl)-3,8-diazabicyclo[3.2.1]octan-8-yl)methanone] were, in that order, 3.7 nM, 308 nM, 940 nM and 63 nM.
The like results for `COc1cncc(-c2cc3c(N4CC5CCC(C4)N5C(=O)[C@@H]4C[C@H]4F)ccnn3c2)n1` [Example 123, ((1S,2R)-2-fluorocyclopropyl)(3-(6-(6-methoxypyrazin-2-yl)pyrrolo[1,2-b]pyridazin-4-yl)-3,8-diazabicyclo[3.2.1]octan-8-yl)methanone] were, in that order, 23.7 nM, 302 nM, 5510 nM and 386 nM.
The like results for `COc1cnc(-c2cc3c(N4CC5CCC(C4)N5C(=O)[C@@H]4C[C@H]4F)ccnn3c2)cn1` [Example 124, ((1S,2R)-2-fluorocyclopropyl)(3-(6-(5-methoxypyrazin-2-yl)pyrrolo[1,2-b]pyridazin-4-yl)-3,8-diazabicyclo[3.2.1]octan-8-yl)methanone] were, in that order, 54.5 nM, 405 nM, 7440 nM and 700 nM.
`Cc1ccc(-c2cc3c(N4CC5CCC(C4)N5C(=O)[C@@H]4C[C@H]4F)ccnn3c2)nn1` [Example 125, ((1S,2R)-2-fluorocyclopropyl)(3-(6-(6-methylpyridazin-3-yl)pyrrolo[1,2-b]pyridazin-4-yl)-3,8-diazabicyclo[3.2.1]octan-8-yl)methanone]: the half-inhibitory concentration (IC50) in experiment [1] was 8.8 nM; in experiment [2], 236 nM; in experiment [3] it was 1010 nM; in experiment [4], 49 nM.
The like results for `CNc1nccc(-c2cc3c(N4CC5CCC(C4)N5C(=O)[C@@H]4C[C@H]4F)ccnn3c2)n1` [Example 126, ((1S,2R)-2-fluorocyclopropyl)(3-(6-(2-(methylamino)pyrimidin-4-yl)pyrrolo[1,2-b]pyridazin-4-yl)-3,8-diazabicyclo[3.2.1]octan-8-yl)methanone] were, in that order, 8.8 nM, 54 nM, 1460 nM and 98 nM.
The like results for `CNc1cncc(-c2cc3c(N4CC5CCC(C4)N5C(=O)[C@@H]4C[C@H]4F)ccnn3c2)n1` [Example 127, ((1S,2R)-2-fluorocyclopropyl)(3-(6-(6-(methylamino)pyrazin-2-yl)pyrrolo[1,2-b]pyridazin-4-yl)-3,8-diazabicyclo[3.2.1]octan-8-yl)methanone] were, in that order, 18 nM, 211 nM, 3140 nM and 300 nM.
The like results for `CN(C)c1cc(-c2cc3c(N4CC5CCC(C4)N5C(=O)[C@@H]4C[C@H]4F)ccnn3c2)ccn1` [Example 128, (3-(6-(2-(dimethylamino)pyridin-4-yl)pyrrolo[1,2-b]pyridazin-4-yl)-3,8-diazabicyclo[3.2.1]octan-8-yl)((1S,2R)-2-fluorocyclopropyl)methanone] were, in that order, 2.9 nM, 29 nM, 844 nM and 68 nM.
With `CNc1ccc(-c2cc3c(N4CC5CCC(C4)N5C(=O)[C@@H]4C[C@H]4F)ccnn3c2)cn1` [Example 129, ((1S,2R)-2-fluorocyclopropyl)(3-(6-(6-(methylamino)pyridin-3-yl)pyrrolo[1,2-b]pyridazin-4-yl)-3,8-diazabicyclo[3.2.1]octan-8-yl)methanone], the 50% inhibitory concentration (IC50) in experiment [1] was determined as 3.8 nM; in experiment [2], 69 nM; in experiment [3], 658 nM; in experiment [4], 73 nM.
The like results for `Cc1cncc(-c2cc3c(N4CC5CCC(C4)N5C(=O)[C@@H]4C[C@H]4F)ccnn3c2)n1` [Example 130, ((1S,2R)-2-fluorocyclopropyl)(3-(6-(6-methylpyrazin-2-yl)pyrrolo[1,2-b]pyridazin-4-yl)-3,8-diazabicyclo[3.2.1]octan-8-yl)methanone] were, in that order, 52.8 nM, 806 nM, 5420 nM and 674 nM.
The like results for `Cc1cnc(-c2cc3c(N4CC5CCC(C4)N5C(=O)[C@@H]4C[C@H]4F)ccnn3c2)cn1` [Example 131, ((1S,2R)-2-fluorocyclopropyl)(3-(6-(5-methylpyrazin-2-yl)pyrrolo[1,2-b]pyridazin-4-yl)-3,8-diazabicyclo[3.2.1]octan-8-yl)methanone] were, in that order, 50.7 nM, 562 nM, 5470 nM and 672 nM.
Turning to `O=C([C@@H]1C[C@H]1F)N1C2CCC1CN(c1ccnn3cc(-c4ccc(=O)n(C(F)F)c4)cc13)C2` [Example 132, 1-(difluoromethyl)-5-(4-(8-((1S,2R)-2-fluorocyclopropane-1-carbonyl)-3,8-diazabicyclo[3.2.1]octan-3-yl)pyrrolo[1,2-b]pyridazin-6-yl)pyridin-2(1H)-one], the IC50 in experiment [1] is 3.3 nM; in experiment [2] it was 34 nM; in experiment [3], 452 nM; in experiment [4] it was 37 nM.
The like results for `Cn1ncc(-c2cc3c(N4CC5CCC(C4)N5C(=O)[C@@H]4C[C@H]4F)ccnn3c2)c1F` [Example 133, (3-(6-(5-fluoro-1-methyl-1H-pyrazol-4-yl)pyrrolo[1,2-b]pyridazin-4-yl)-3,8-diazabicyclo[3.2.1]octan-8-yl)((1S,2R)-2-fluorocyclopropyl)methanone] were, in that order, 6 nM, 124 nM, 856 nM and 112 nM.
The like results for `COc1nn(C)cc1-c1cc2c(N3CC4CCC(C3)N4C(=O)[C@@H]3C[C@H]3F)ccnn2c1` [Example 134, ((1S,2R)-2-fluorocyclopropyl)(3-(6-(3-methoxy-1-methyl-1H-pyrazol-4-yl)pyrrolo[1,2-b]pyridazin-4-yl)-3,8-diazabicyclo[3.2.1]octan-8-yl)methanone] were, in that order, 1.4 nM, 114 nM, 588 nM and 24 nM.
The like results for `COc1cc(-c2cc3c(N4CC5CCC(C4)N5C(=O)[C@@H]4C[C@H]4F)ccnn3c2)cnn1` [Example 137, ((1S,2R)-2-fluorocyclopropyl)(3-(6-(6-methoxypyridazin-4-yl)pyrrolo[1,2-b]pyridazin-4-yl)-3,8-diazabicyclo[3.2.1]octan-8-yl)methanone] were, in that order, 17.6 nM, 150 nM, 4200 nM and 220 nM.
Consider `CN(C)c1cc(-c2cc3c(N4CC5CCC(C4)N5C(=O)[C@@H]4C[C@H]4F)ccnn3c2)cnn1` [Example 138, (3-(6-(6-(dimethylamino)pyridazin-4-yl)pyrrolo[1,2-b]pyridazin-4-yl)-3,8-diazabicyclo[3.2.1]octan-8-yl)((1S,2R)-2-fluorocyclopropyl)methanone], for which the IC50 worked out at 13.8 nM in experiment [1], 57 nM in experiment [2], 3930 nM in experiment [3] and 395 nM in experiment [4].
The like results for `COc1cc(-c2cc3c(N4CC5CCC(C4)N5C(=O)[C@@H]4C[C@H]4F)c(F)cnc3[nH]2)ccn1` [Example 139, (3-(5-fluoro-2-(2-methoxypyridin-4-yl)-1H-pyrrolo[2,3-b]pyridin-4-yl)-3,8-diazabicyclo[3.2.1]octan-8-yl)((1S,2R)-2-fluorocyclopropyl)methanone] were, in that order, 5.5 nM, 39 nM, 144 nM and 74 nM.
`O=C(C1CC1)N1C2CCC1CN(c1c(F)cnn3cc(-c4cnn(C(F)F)c4)cc13)C2` [Example 140, cyclopropyl(3-(6-(1-(difluoromethyl)-1H-pyrazol-4-yl)-3-fluoropyrrolo[1,2-b]pyridazin-4-yl)-3,8-diazabicyclo[3.2.1]octan-8-yl)methanone]: the IC50 in experiment [1] was determined as 56 nM; in experiment [2], 834 nM; in experiment [3], 738 nM; in experiment [4], 1480 nM.
The like results for `Cn1cnc(-c2cc3c(N4CC5CCC(C4)N5C(=O)C4CC4)ncnn3c2)c1` [Example 143, Cyclopropyl(3-(6-(1-methyl-1H-imidazol-4-yl)pyrrolo[2,1-f][1,2,4]triazin-4-yl)-3,8-diazabicyclo[3.2.1]octan-8-yl)methanone] were, in that order, 533 nM, 10000 nM, 9690 nM and 9940 nM.
Turning to `O=C(C1CC1)N1C2CCC1CN(c1ncnn3cc(-c4cnn(C(F)F)c4)cc13)C2` [Example 144], the IC50 in experiment [1] turned out to be 622 nM; in experiment [2], 9320 nM; in experiment [3], 10000 nM; in experiment [4] it was 10000 nM.
